Drawing on patent US8933235B2, “Pyridinedione carboxamide inhibitors of endothelial lipase” (Bristol-Myers Squibb Company, priority 2011, dated 2015), this text covers IC50 for six molecules.

The target of the test is T1, endothelial lipase (EL) (Homo sapiens, UniProt Q9Y5X9).
T1 construct: Conditioned media obtained from HT-1080 cells, which were transformed by RAGE technology (Athersys) to overexpress endogenous EL; endogenous in cells; conditioned medium used as the enzyme source
T1 sequence (Q9Y5X9 21-500): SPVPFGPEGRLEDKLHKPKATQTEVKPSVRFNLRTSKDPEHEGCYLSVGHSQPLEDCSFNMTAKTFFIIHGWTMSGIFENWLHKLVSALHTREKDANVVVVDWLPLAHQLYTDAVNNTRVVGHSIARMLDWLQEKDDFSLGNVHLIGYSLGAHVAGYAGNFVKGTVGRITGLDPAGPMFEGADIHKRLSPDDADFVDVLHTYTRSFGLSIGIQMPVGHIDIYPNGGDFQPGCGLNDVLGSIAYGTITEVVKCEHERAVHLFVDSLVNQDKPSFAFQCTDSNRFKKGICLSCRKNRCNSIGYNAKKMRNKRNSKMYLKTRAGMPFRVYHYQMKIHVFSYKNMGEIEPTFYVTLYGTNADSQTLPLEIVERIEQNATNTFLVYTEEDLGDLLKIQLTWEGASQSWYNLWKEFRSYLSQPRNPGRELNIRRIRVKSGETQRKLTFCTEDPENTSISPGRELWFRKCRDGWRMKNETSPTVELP
The test is described as follows: Endothelial lipase (EL) enzymatic assay with fluorescent substrate A10070 in DMPG vesicles. It counts as biochemical. Particulars: conditioned media from HT-1080 cells overexpressing endogenous EL; 20 min preincubation at 37° C.; read-out: HLE_EL_CRC IC50. On the procedure:
Endothelial lipase activity was measured using a fluorescent substrate, A10070, (Invitrogen, CA) doped into an artificial vesicle containing DMPG (Avanti Polar Lipids) as the excipient. Vesicles were prepared by combining 285 uL of 1 mM DMPG in a 1:1 mixture of MeOH and CHCl3 with 15 uL of 1 mM A10070 in a 1:1 mixture of MeOH and CHCl3. The mixture was dried under nitrogen and resuspended in 150 uL of 50 mM HEPES pH 8.0 buffer containing 100 mM NaCl and 0.2 mM EDTA. The sample was allowed to sit at rt for 15 min and then was sonicated 3×4 mins on ice with a Branson Sonicator using duty cycle 1. This preparation provides vesicles with a mole fraction of 0.05 for the FRET substrate.
The enzymatic assay was measured using white, opaque 96-well half area plates. Each well contained 60 uL of assay buffer (50 mM HEPES pH 8.0, 50 mM NaCl and 1 mM CaCl2) and 2 ul of a DMSO solution containing compound of interest. Conditioned media obtained from HT-1080 cells, which were transformed by RAGE technology (Athersys) to overexpress endogenous EL, was added and the reaction was allowed to incubate for 20 min at 37° C. with gentle agitation. The reaction was started by the addition of 20 uL of a 1:4 dilution of vesicles. The final total reaction volume was 100 uL. The reaction rates were measured on a Gemini plate reader with an excitation wavelength of 488 nm and a emission of 530 nm. Readings were taken every 20 seconds for 10 min with agitation between each reading. The slope of the linear portion of the readout was used to calculate the rate of the reaction.
Consider `Cn1ccc(C(=O)NCCCOc2cccc(F)c2)c(O)c1=O` [Example 142, N-(3-(3-fluorophenoxy)propyl)-3-hydroxy-1-methyl-2-oxo-1,2-dihydropyridine-4-carboxamide], for which the IC50 – broadly, the concentration needed to halve the response being measured – amounted to 216 nM.

Regarding `COc1ccc(CNc2c(C(=O)NCCCc3ccc(Cl)c(Cl)c3)ccn(C)c2=O)cc1` [Example 186, (3-(3,4-dichlorophenyl)propyl)-3-(4-methoxybenzylamino)-1-methyl-2-oxo-1,2-dihydropyridine-4-carboxamide], the IC50 turned out to be 172 nM.

For the molecule `CC(C)CNc1c(C(=O)NCCCc2ccc(Cl)c(Cl)c2)ccn(C)c1=O` [Example 188, N-(3-(3,4-dichlorophenyl)propyl)-3-(isobutylamino)-1-methyl-2-oxo-1,2-dihydropyridine-4-carboxamide], the IC50 stood at 200 nM.

With `CC(C)OCCNc1c(C(=O)NCCCc2ccc(Cl)c(Cl)c2)ccn(C)c1=O` [Example 189, N-(3-(3,4-dichlorophenyl)propyl)-3-(2-isopropoxyethylamino)-1-methyl-2-oxo-1,2-dihydropyridine-4-carboxamide], the IC50 is 210 nM.

With `Cn1ccc(C(=O)NCCCOc2ccc(Cl)c(Cl)c2)c(O)c1=O` [Example 194, N-(3-(3,4-dichlorophenoxy)propyl)-3-hydroxy-1-methyl-2-oxo-1,2-dihydropyridine-4-carboxamide], the IC50 was determined as 210 nM.

With `COC(=O)c1cccc(OCCCNC(=O)c2ccn(C)c(=O)c2O)c1` [Example 198, methyl 3-(3-(3-hydroxy-1-methyl-2-oxo-1,2-dihydropyridine-4-carboxamido)propoxy)benzoate], the IC50 amounted to 182 nM.
